Our source for the IC50 values is patent USRE46856E1, “Substituted 2,3-dihydroimidazo[1,2-c]quinazoline derivatives useful for treating hyper-proliferative disorders and diseases associated with angiogenesis” (Bayer Intellectual Property GmbH, priority 2006, dated 2018).

SMILES strings stand for the structures. Where a name gives a salt, the structure may show the parent alone.

In experiment [1] the test system is IGF-1 induced AKT phosphorylation in A549 cells. In words: IGF-1 induced AKT phosphorylation assay (A549 cell assay). As to conditions: Homo sapiens; A549 cells, 25 ng/ml IGF-1, phospho-AKT(Ser 473); read-out: average IC50 in the A549 cell assay. It is filed as cell-based. In outline:
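A549 cells stimulated with 25 ng/ml IGF-1 for 10 min at 37 °C, then fixed in formaldehyde/methanol. Phospho-AKT detected by cell ELISA (primary anti-phospho-AKT, HRP secondary, ECL luminescence); IC50 from inhibition curve.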

The target of experiment [2] is T1, PI3Kα (Homo sapiens, UniProt P42336).
T1 construct: His6 (N); made in house; host or cells: S. frugiperda 9 (Sf9) insect cells
T1 sequence (P42336 109-1068): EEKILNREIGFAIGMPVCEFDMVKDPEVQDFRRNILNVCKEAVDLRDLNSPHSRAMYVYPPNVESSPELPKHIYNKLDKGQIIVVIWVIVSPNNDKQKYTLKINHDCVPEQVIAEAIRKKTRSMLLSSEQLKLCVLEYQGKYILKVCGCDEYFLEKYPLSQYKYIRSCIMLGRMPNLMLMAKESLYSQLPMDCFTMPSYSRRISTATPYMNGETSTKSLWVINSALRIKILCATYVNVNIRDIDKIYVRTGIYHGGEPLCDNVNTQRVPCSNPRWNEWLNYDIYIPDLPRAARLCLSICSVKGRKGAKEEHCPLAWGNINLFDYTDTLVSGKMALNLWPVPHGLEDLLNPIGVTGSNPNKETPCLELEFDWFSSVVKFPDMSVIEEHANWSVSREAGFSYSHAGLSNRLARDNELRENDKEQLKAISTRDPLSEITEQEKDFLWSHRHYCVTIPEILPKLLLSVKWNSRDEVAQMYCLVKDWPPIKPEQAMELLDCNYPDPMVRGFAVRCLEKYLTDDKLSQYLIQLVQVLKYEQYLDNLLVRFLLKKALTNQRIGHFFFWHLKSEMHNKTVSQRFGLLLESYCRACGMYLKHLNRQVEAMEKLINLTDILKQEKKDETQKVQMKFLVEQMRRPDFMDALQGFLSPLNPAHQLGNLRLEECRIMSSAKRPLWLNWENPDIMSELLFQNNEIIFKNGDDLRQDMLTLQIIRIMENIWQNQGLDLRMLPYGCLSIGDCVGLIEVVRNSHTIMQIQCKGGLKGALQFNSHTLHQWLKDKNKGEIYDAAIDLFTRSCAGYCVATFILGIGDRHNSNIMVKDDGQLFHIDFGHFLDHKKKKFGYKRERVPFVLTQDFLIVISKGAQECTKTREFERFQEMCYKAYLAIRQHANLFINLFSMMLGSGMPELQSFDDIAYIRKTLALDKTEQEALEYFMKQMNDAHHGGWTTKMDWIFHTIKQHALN
As to the kind of experiment: Solid-phase lipid kinase assay of PI3Kα (p110α assay). It is filed as biochemical. As to conditions: recombinant truncated human p110α, 10 μM ATP. An excerpt: [Determination of IC50 Values of Compounds in Kinase Assay of PI3Kα]
LABORATORIES (Toronto, Canada). […] [γ^33P]ATP and unlabeled ATP were purchased from […] […] BIOTECH (Buckinghamshire, UK) and ROCHE DIAGNOSTICS (Mannheim, Germany), respectively. Scintillation cocktails and MicroScint PS™ were purchased from PACKARD (Meriden, Conn.). Maxisorp™ plates were purchased from NALGE NUNC INTERNATIONAL K.K. (Tokyo, Japan). All other chemicals not further specified were from WAKO PURE CHEMICALS (Osaka, Japan).
The plates were subsequently air-dried by incubation for at least 2 hours in a fume hood. The reaction was set up by mixing 25 μL/well of assay buffer 2×(100 mM MOPSO/NaOH, 0.2 M NaCl, pH 7.0, 8 mM MgCl2, 2 mg/mL BSA (fatty acid-free)), and 7.5 ng/well PI3Kα in the lipid pre-coated plate. 100× test compounds were added in 2% DMSO. The reaction was started by adding 20 μL/well of ATP mix (final 10 μM ATP; 0.05 μCi/well [γ^33P]ATP). After incubation at RT for 2 hours, the reaction was terminated by adding 50 μl/well stop solution (50 mM EDTA, pH 8.0). The plate was then washed twice with Tris-buffered saline (TBS, pH 7.4). MicroScint PS™ (PACKARD) scintillation mix was added at 100 μL/well, and radioactivity was counted using a TopCount™ (PACKARD) scintillation counter.
The inhibition percent at each concentration of compound was calculated, and IC50 values were determined from the inhibition of curve.

The target of experiment [3] is T2, PI3Kβ (Homo sapiens, UniProt P42338).
T2 construct: His6 (N); made in house; host or cells: S. frugiperda 9 (Sf9) insect cells
T2 sequence (P42338 109-1070): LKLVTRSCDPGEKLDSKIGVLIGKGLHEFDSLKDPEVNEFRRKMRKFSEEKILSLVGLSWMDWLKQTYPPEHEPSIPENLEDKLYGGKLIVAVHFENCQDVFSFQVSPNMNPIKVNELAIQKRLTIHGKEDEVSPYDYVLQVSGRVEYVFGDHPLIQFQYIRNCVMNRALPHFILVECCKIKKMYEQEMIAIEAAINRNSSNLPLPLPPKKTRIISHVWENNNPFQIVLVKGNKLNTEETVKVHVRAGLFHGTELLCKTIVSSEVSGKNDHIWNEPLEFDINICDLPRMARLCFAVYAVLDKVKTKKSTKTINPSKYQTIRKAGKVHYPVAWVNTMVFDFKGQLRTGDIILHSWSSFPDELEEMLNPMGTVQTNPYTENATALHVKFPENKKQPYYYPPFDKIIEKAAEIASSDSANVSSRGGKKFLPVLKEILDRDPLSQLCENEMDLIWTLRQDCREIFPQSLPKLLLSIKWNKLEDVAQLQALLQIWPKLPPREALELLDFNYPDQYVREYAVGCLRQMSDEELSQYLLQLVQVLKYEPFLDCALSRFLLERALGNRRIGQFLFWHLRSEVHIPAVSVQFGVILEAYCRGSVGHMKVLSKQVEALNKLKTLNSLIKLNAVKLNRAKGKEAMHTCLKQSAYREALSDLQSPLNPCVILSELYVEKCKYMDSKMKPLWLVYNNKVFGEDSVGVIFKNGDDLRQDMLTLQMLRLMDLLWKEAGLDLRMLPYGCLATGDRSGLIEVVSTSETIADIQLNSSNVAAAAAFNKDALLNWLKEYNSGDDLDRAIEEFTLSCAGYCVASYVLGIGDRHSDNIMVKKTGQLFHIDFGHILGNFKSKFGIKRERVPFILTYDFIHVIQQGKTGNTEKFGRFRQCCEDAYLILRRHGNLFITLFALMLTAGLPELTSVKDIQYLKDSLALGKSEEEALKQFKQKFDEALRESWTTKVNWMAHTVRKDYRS
As to the kind of experiment: Isozyme selectivity test: kinase assay of PI3Kβ (p110β assay). It is filed as biochemical. As to conditions: recombinant truncated p110β, 7.5 ng protein/well. An excerpt:
[Isozyme Selectivity Test in PI3K]
Determination of IC50 Values of Compounds in Kinase Assays of PI3Kβ and PI3Kγ

A word on the IC50: it is the midpoint of a concentration-inhibition curve. Regarding `COc1c(OCCCN2CCOCC2)ccc2c1N=C(NC(=O)c1ccc(N3CCNCC3)nc1)N1CCN=C21` [Example 50, N-[7-methoxy-8-(3-morpholin-4-ylpropoxy)-2,3-dihydroimidazo[1,2-c]quinazolin-5-yl]-6-piperazin-1-ylnicotinamide hydrochloride], the half-maximal inhibitory concentration (IC50) in experiment [1] is > 1000 nM; in experiment [2], 10 to 100 nM; in experiment [3], 10 to 100 nM.
As to `COc1c(OCCCN2CCOCC2)ccc2c1N=C(NC(=O)c1ccc(NCc3ccc(F)cc3)nc1)N1CCN=C21` [Example 53, 6-[(4-fluorobenzyl)amino]-N-[7-methoxy-8-(3-morpholin-4-ylpropoxy)-2,3-dihydroimidazo[1,2-c]quinazolin-5-yl]nicotinamide], the values for the 50% inhibitory concentration (IC50) in experiment [1], in experiment [2] and in experiment [3] were > 1000 nM, 10 to 100 nM and 10 to 100 nM, respectively.
In the case of `COc1c(OCCCN2CCOCC2)ccc2c1N=C(NC(=O)c1ccc(-n3cccc3)nc1)N1CCN=C21` [Example 56, N-[7-methoxy-8-(3-morpholin-4-ylpropoxy)-2,3-dihydroimidazo[1,2-c]quinazolin-5-yl]-6-(1H-pyrrol-1-yl)nicotinamide], the half-maximal inhibitory concentration (IC50) in experiment [1] is > 1000 nM; in experiment [2], 10 to 100 nM; in experiment [3], 10 to 100 nM.
As to `COc1c(OCCCN2CCOCC2)ccc2c1N=C(NC(=O)c1ccc(N3CCOCC3)nc1)N1CCN=C21` [Example 57, N-[7-methoxy-8-(3-morpholin-4-ylpropoxy)-2,3-dihydroimidazo[1,2-c]quinazolin-5-yl]-6-morpholin-4-ylnicotinamide], the 50% inhibitory concentration (IC50) in experiment [1] lay in the range of 100 to 1000 nM; in experiment [2], 10 to 100 nM; in experiment [3] it was 10 to 100 nM.
For `COc1c(OCCCN2CCOCC2)ccc2c1N=C(NC(=O)c1ccc(NC(=O)C(C)(C)C)nc1)N1CCN=C21` [Example 59, 6-[(2,2-dimethylpropanoyl)amino]-N-[7-methoxy-8-(3-morpholin-4-ylpropoxy)-2,3-dihydroimidazo[1,2-c]quinazolin-5-yl]nicotinamide], the 50% inhibitory concentration (IC50) in experiment [1] was > 1000 nM; in experiment [2] it was > 100 nM; in experiment [3] it was > 100 nM.
For the molecule `COc1c(OCCCN2CCOCC2)ccc2c1N=C(NC(=O)c1ccc(OCC(F)(F)F)nc1)N1CCN=C21` [Example 61, N-[7-methoxy-8-(3-morpholin-4-ylpropoxy)-2,3-dihydroimidazo[1,2-c]quinazolin-5-yl]-6-(2,2,2-trifluoroethoxy)nicotinamide], the IC50 in experiment [1] fell in the range of 100 to 1000 nM; in experiment [2], 10 to 100 nM; in experiment [3], 10 to 100 nM.
As for `COc1c(OCCCN2CCOCC2)ccc2c1N=C(NC(=O)c1ccc(C(F)(F)F)nc1)N1CCN=C21` [Example 62, N-[7-methoxy-8-(3-morpholin-4-ylpropoxy)-2,3-dihydroimidazo[1,2-c]quinazolin-5-yl]-6-(trifluoromethyl)nicotinamide], the IC50 was in the range of 100 to 1000 nM in experiment [1], 10 to 100 nM in experiment [2] and 10 to 100 nM in experiment [3].
Turning to `COc1c(OCCCN2CCOCC2)ccc2c1N=C(NC(=O)c1cccs1)N1CCN=C21` [Example 93, N-[7-methoxy-8-(3-morpholin-4-ylpropoxy)-2,3-dihydroimidazo[1,2-c]quinazolin-5-yl]thiophene-2-carboxamide], the IC50 in experiment [1] was in the range of 100 to 1000 nM; in experiment [2], 10 to 100 nM; in experiment [3], 10 to 100 nM.
As to `COc1c(OCCCN2CCOCC2)ccc2c1N=C(NC(=O)c1csc(C)n1)N1CCN=C21` [Example 98, N-[7-methoxy-8-(3-morpholin-4-ylpropoxy)-2,3-dihydroimidazo[1,2-c]quinazolin-5-yl]-2-methyl-1,3-thiazole-4-carboxamide], the concentration for half-maximal inhibition (IC50) in experiment [1] was > 1000 nM; in experiment [2], 10 to 100 nM; in experiment [3], 10 to 100 nM.
